Test results from patent US20130196937A1, “AGE PRODUCTION INHIBITOR” (ORYZA OIL & FAT CHEMICAL CO., LTD., priority 2010, published 2013).
Like-named read-outs stand apart in the source and are kept apart here. Marks after values point to notes of the source that are not given here.

Assays:
AGE production = assay: Test 1: AGE production inhibition (D-glucose + bovine serum albumin, fluorescence); assay type: biochemical
Method: Put the sample solution ([…]) of the concentration of cherry-blossom extract (Example 1) and cherry-leaf extract (Example 2), as shown in the chart, below, into a phosphate buffer solution (pH: […]) containing D-glucose (10%) and into bovine serum albumin (fraction 5.1%) and leave it out at a temperature of 60 degrees centigrade for two days. Dilute the reaction solution with distilled water until the intensity of fluorescent light reaches about 500, thus determining its intensity (measurement wavelength: […]). Also, the extract is to be diluted with distilled water, and the substance, after being dissolved in DMSO (dimethyl sulphoxide), is to be diluted with a phosphate buffer solution until DMSO concentration is of 1%. Each value in Chart 1 indicates an average value with standard error of the three examples. Asterisks (*, **) mean a significant difference (i.e. *: p<0.05; **: p<0.01) between the processed samples and the unprocessed samples as determined by Dunnett's Multiple Comparison Test.

[1] = system: normal diploid fibroblast (PDL22-32 cells); assay: Test 2-2: fibroblast apoptosis caused by CML-collagen (Caspase Assay), extracts and substances; assay type: cell-based, human
Method: 50 mg of 1 mM HCL was added to 25 mL of bovine skin-derived collagen and dissolved for two hours incubation at the temperature of 37 degrees centigrade, and was shaken as needed. Then, PBS (pH7.4 25 mL) was added to sodium cyanoborohydride (1.42 g) and to glyoxylic acid (0.9 g) and mixed so as to react at the temperature of 37 degrees centigrade for 24 hours. The reaction solution was then put into a dialysis cell of 10,000 molecular mass for a dialysis-with-water test to be conducted for one day and for a dialysis-with-PBS to be conducted for six days. CML-collagen (21 mg) was obtained by freeze-drying the dialysate.
The fibroblast (7×10^4 cells) was suspended in the D-MEM medium containing FCS (0.5%), penicillin (100 units/mL) and streptomycin ([…]) to be seeded within 96-well plates ([…]). After 24 hours of culture, the dissolved CML-collagen solution (2 mg·mL) and the sample solution ([…]) were added to the medium and cultured for 24 hours. Collagen, instead of CML-collagen, was added to Normal group.
The rate of cell survival was measured by MIT Assay. The result is shown in Chart 2. At the same time, a microscopic test was done, of which the result of formazan formation of fibroblast (×100) is shown in FIG. 2. Apoptosis was identified by measuring active caspase-3/7 by the fluorescence method, of which the result is shown in Chart 3, below. Each value of Charts 2 and 3 is indicated by the average value with standard error of the six examples. Asterisks (*, **) mean a significant difference (i.e. *: p<0.05; **: p<0.01) between the unprocessed samples and Dunnett's multiple comparison test, and f represents p<0.05 by Fisher's PLSD Test.
Here, in Test 2-2, respecting the cherry-blossom extract (Example 1), and the cherry-leaf extract (Example 2) and the seven substances contained in the cherry-blossom extract (Example 1): 1-O-(E)-Caffeoyl-β-D-glucopyranoside, 1-O-(E)-Coumaroyl-β-D-Glucopyranosideand, 1-O-(E)-Cinnamoyl-β-D-glucopyranoside, Kaempferol 3-O-3-D-glucopyranoside, Quercetin 3-O-β-D-glucopyranoside, Kaempferol 3-O-(6″-malony)-β-D-glucopyranoside and Quercetin 3-O-(6″-malony)-β-D-glucopyranoside (Examples 3 to 9), the activity against fibroblast apoptosis, caused by CML-collagen, was identified in the same way as in Test 2-1.
Also, in Test 2-2, PDL22-32 cells were used as the normal diploid fibroblast. As a target for comparison, aminoguanidine hydrochloride which is a medicine for the glycation inhibitor was examined in the same way. Each value of Chart 4 indicates an average value with standard error of the five examples. Asterisks (*, **) mean a significant difference (i.e. *: p<0.05; **: p<0.01) between processed samples and unprocessed samples with CML-collagen, determined by Dunnett's Multiple Comparison Test.

O=C(O)CC(=O)OCC1O[C@@H](Oc2c(-c3ccc(O)cc3)oc3cc(O)cc(O)c3c2=O)C(O)C(O)[C@@H]1O (stereo partly drawn) [Kaempferol 3-O-(6″-malony)-β-D-glucopyranoside]
IC50 of AGE production inhibition (AGE production): 78 µg/mL | Inhibition Ratio (%) of AGE production (AGE production; 1 μg/mL): −5.0 ± 0.1% | Inhibition Ratio (%) of AGE production (AGE production; 3 μg/mL): −8.5 ± 0.1% | Inhibition Ratio (%) of AGE production (AGE production; 10 μg/mL): 0.2 ± 0.1% | Inhibition Ratio (%) of AGE production (AGE production; 30 μg/mL): 20.5 ± 0.3** % | Inhibition Ratio (%) of AGE production (AGE production; 100 μg/mL): 50.8 ± 0.4** % | Inhibition Ratio (%) of AGE production (AGE production; 300 μg/mL): 91.7 ± 1.7** % | inhibitory activity against apoptosis caused by CML-collagen, result in words [1]: relatively weak activity | Inhibition Ratio (%) of fibroblast apoptosis (Caspase Assay) ([1]; 1 μg/mL): −18.9 ± 0.6% | Inhibition Ratio (%) of fibroblast apoptosis (Caspase Assay) ([1]; 3 μg/mL): −17.3 ± 0.6% | Inhibition Ratio (%) of fibroblast apoptosis (Caspase Assay) ([1]; 10 μg/mL): 10.5 ± 0.5%

O=c1c(O[C@@H]2O[C@H](CO)[C@@H](O)[C@H](O)[C@H]2O)c(-c2ccc(O)cc2)oc2cc(O)cc(O)c12 [Kaempferol 3-O-β-D-glucopyranoside]
IC50 of AGE production inhibition (AGE production): 102 µg/mL | Inhibition Ratio (%) of AGE production (AGE production; 1 μg/mL): −8.4 ± 0.1** % | Inhibition Ratio (%) of AGE production (AGE production; 3 μg/mL): −9.1 ± 0.2** % | Inhibition Ratio (%) of AGE production (AGE production; 10 μg/mL): −2.0 ± 0.1% | Inhibition Ratio (%) of AGE production (AGE production; 30 μg/mL): 19.4 ± 0.1** % | Inhibition Ratio (%) of AGE production (AGE production; 100 μg/mL): 45.0 ± 0.5** % | Inhibition Ratio (%) of AGE production (AGE production; 300 μg/mL): 80.3 ± 0.7** % | inhibitory activity against apoptosis caused by CML-collagen, result in words [1]: especially strong inhibitory activity | Inhibition Ratio (%) of fibroblast apoptosis (Caspase Assay) ([1]; 1 μg/mL): −0.7 ± 0.1% | Inhibition Ratio (%) of fibroblast apoptosis (Caspase Assay) ([1]; 3 μg/mL): 27.9 ± 1.1% | Inhibition Ratio (%) of fibroblast apoptosis (Caspase Assay) ([1]; 10 μg/mL): 100.7 ± 4.2% | inhibitory activity against apoptosis caused by CML-collagen, result in words ([1]; listed as Example 6): strong inhibitory activity

O=C(O)CC(=O)OCC1O[C@@H](Oc2c(-c3ccc(O)c(O)c3)oc3cc(O)cc(O)c3c2=O)C(O)C(O)[C@@H]1O (stereo partly drawn) [Quercetin 3-O-(6″-malony)-β-D-glucopyranoside]
IC50 of AGE production inhibition (AGE production): 36 µg/mL | Inhibition Ratio (%) of AGE production (AGE production; 1 μg/mL): −10.4 ± 0.9% | Inhibition Ratio (%) of AGE production (AGE production; 3 μg/mL): 1.9 ± 0.1% | Inhibition Ratio (%) of AGE production (AGE production; 10 μg/mL): 20.4 ± 0.3** % | Inhibition Ratio (%) of AGE production (AGE production; 30 μg/mL): 43.7 ± 0.7** % | Inhibition Ratio (%) of AGE production (AGE production; 100 μg/mL): 74.6 ± 0.7** % | Inhibition Ratio (%) of AGE production (AGE production; 300 μg/mL): 103.9 ± 3.6** % | inhibitory activity against apoptosis caused by CML-collagen, result in words [1]: strong inhibitory activity | Inhibition Ratio (%) of fibroblast apoptosis (Caspase Assay) ([1]; 1 μg/mL): 21.8 ± 0.7% | Inhibition Ratio (%) of fibroblast apoptosis (Caspase Assay) ([1]; 3 μg/mL): 36.6 ± 1.4% | Inhibition Ratio (%) of fibroblast apoptosis (Caspase Assay) ([1]; 10 μg/mL): 98.4 ± 4.4* %

O=c1c(O[C@@H]2O[C@H](CO)[C@@H](O)[C@H](O)[C@H]2O)c(-c2ccc(O)c(O)c2)oc2cc(O)cc(O)c12 [Quercetin 3-O-β-D-glucopyranoside]
IC50 of AGE production inhibition (AGE production): 30 µg/mL | Inhibition Ratio (%) of AGE production (AGE production; 1 μg/mL): 8.5 ± 0.1** % | Inhibition Ratio (%) of AGE production (AGE production; 3 μg/mL): 6.5 ± 0.1* % | Inhibition Ratio (%) of AGE production (AGE production; 10 μg/mL): 27.6 ± 0.5** % | Inhibition Ratio (%) of AGE production (AGE production; 30 μg/mL): 49.8 ± 0.7** % | Inhibition Ratio (%) of AGE production (AGE production; 100 μg/mL): 74.2 ± 1.1** % | Inhibition Ratio (%) of AGE production (AGE production; 300 μg/mL): 100.8 ± 0.6** % | inhibitory activity against apoptosis caused by CML-collagen, result in words [1]: strongest inhibitory activity | Inhibition Ratio (%) of fibroblast apoptosis (Caspase Assay) ([1]; 1 μg/mL): 44.2 ± 1.5* % | Inhibition Ratio (%) of fibroblast apoptosis (Caspase Assay) ([1]; 3 μg/mL): 39.0 ± 1.1* % | Inhibition Ratio (%) of fibroblast apoptosis (Caspase Assay) ([1]; 10 μg/mL): 121.5 ± 5.4** %
